The values that follow come from paper PMC10285260, “Processive kinetics in the three-step lanosterol 14α-demethylation reaction catalyzed by human cytochrome P450 51A1” (The Journal of Biological Chemistry, 2023).

Broadly, the Kd is a measure of binding affinity in units of concentration. For orientation: koff means the first-order rate constant of dissociation. Low readings indicate a long-lived complex, high ones a short-lived complex.

The target of experiment [1] is T1, human P450 51A1 (Homo sapiens, UniProt Q16850).
T1 sequence (Q16850 1-509): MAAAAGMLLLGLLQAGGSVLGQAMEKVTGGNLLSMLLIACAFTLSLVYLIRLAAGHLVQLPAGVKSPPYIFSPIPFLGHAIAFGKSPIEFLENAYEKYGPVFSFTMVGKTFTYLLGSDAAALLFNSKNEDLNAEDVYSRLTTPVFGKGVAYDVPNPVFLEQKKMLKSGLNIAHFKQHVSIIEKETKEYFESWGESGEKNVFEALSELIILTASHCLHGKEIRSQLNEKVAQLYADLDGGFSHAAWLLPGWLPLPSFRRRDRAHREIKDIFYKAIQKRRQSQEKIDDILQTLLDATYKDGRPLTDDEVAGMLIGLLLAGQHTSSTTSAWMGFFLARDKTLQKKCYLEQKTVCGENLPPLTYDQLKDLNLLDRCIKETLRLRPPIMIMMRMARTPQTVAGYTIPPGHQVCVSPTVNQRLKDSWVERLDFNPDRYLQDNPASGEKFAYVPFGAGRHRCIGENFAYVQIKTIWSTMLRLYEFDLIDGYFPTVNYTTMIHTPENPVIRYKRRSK
As to the kind of experiment: Steady-state LC-UV assay of sterol oxidation to dihydro FF-MAS by reconstituted P450 51A1. The following applies: for Rate of FF-MAS formation (replicates): listed as 14-CH2OH dihydrolanosterol. The method, then:
Steady-state incubations (500 μl) were generally done at 37 °C with 0.025 μM P450 51A1, 0.10 μM NADPH-P450 reductase, 100 μM L-α-dilauroyl-sn-glycero-3-phosphocholine, 50 mM potassium phosphate buffer (pH 7.4), 10% (v/v) glycerol, and an indicated concentration of each sterol (in 45% (w/v) HPCD). […] The sterols (stored at 4 °C) were prepared as described above and were heated to 37 °C and sonicated prior to use. Sterol working stocks were diluted in HPCD to ensure a constant concentration of cyclodextrin in each reaction. […] Accordingly, all reactions were done with this concentration of glycerol.
Reactions were preincubated (5 min, 37 °C) prior to initiation with an NADPH-regenerating system (0.5 mM NADP^+, 10 mM glucose 6-phosphate, and 2 μg ml^−1 glucose 6-phosphate dehydrogenase) ([60]) and were stopped after 5 min with the addition of CH2Cl2 (5 ml). (The NADPH-generating system, in addition to lower cost than NADPH, drives the reaction to avoid inhibition of the reductase by accumulated NADP^+). For the 14α-aldehyde, the times of preincubation and reaction were reduced (to 2 min and 1 min, respectively). The quenched mixture was centrifuged (2000g, 5 min), and 4 ml of the bottom (organic) layer was transferred to vials and brought to dryness under a stream of N2 gas. The dried residue was resuspended in CH3OH (100 μl) and was analyzed by UPLC using a 2.1 mm × 100 mm (1.7 μm) octadecylsilane (C18) column (held at 25 °C) and a Waters Acquity UPLC system. Samples (4 °C) were injected (10 μl) at a flow rate of 0.20 ml min^−1 using an isocratic mobile phase of CH3CN (only). The product (FF-MAS) was detected using a Waters Acquity photodiode array detector set at 250 nm (Fig. 4B). Data were processed using the MassLynx software (http://www.waters.com/waters/en_US/MassLynx-Mass-Spectrometry-Software-/nav.htm?cid=513164&locale=en_US), and the amount of product formed was calculated by comparison to a twelve-point dihydro FF-MAS standard curve. Determination of kcat and Km for each reaction was carried out by fitting the data to a Michaelis–Menten hyperbola, which was done using GraphPad Prism.
Incubations were run in triplicate, and the mean values (±SD) were calculated and plotted. The linear regression fits include the Prism error estimates for internal fitting (SE).

In experiment [2] the test system is human P450 51A1. Put plainly: Kinetic modeling (KinTek Explorer) of the single-turnover time course. The source says: The initial koff rate constants used in fitting were the koff rates measured in the stopped-flow trap experiments (Fig. 9). All three oxidation reactions are irreversible, and thus k-2, k-4, and k-6 were set to zero.
Data were imported into KinTek Explorer software (v. 11.01, KinTek, https://kintekcorp.com/software) ([63], [64]) as txt files and processed using an Apple computer (operating system 11.6.2).

Experiment [3] addresses T1, human P450 51A1. As to the kind of experiment: Spectral (difference spectroscopy) Kd estimates of P450 51A1-sterol complexes. It is filed as binding. Also noted: made in house; host or cells: Escherichia coli. Conditions: 1.0 μM P450 51A1, quadratic fit. How it is done: Kd values were estimated by difference spectroscopy. P450 51A1 (1.0 μM) was in each of two glass cuvettes (in 100 mM potassium phosphate buffer, pH 7.4) and a baseline was recorded (OLIS-Amino DW2a). Aliquots of a solution of each sterol–HPCD complex were added to the sample cuvette and an equivalent amount of HPCD was added to the reference cuvette, and spectra were recorded. The time between the collection of individual spectra was ∼3 min. The maximum absorbance difference (usually ΔA390-A418) was plotted versus the nominal concentration of added sterol, and the data were fit to hyperbolae in GraphPad Prism software (GraphPad, https://www.graphpad.com), using a quadratic equation to correct the ligand concentration for the enzyme-bound concentration (used as Y=B+(A/2)∗(1/E)∗((Kd+E+X)-sqrt((Kd + E+X)^∧2-(4∗E∗X)) in Prism software). The linear regression fits include the internal error estimates (SE).

Experiment [4] addresses T1, human P450 51A1. As to the kind of experiment: Stopped-flow koff measurements of P450 51A1-sterol complexes with ketoconazole trap. It is filed as binding. Also noted: made in house; host or cells: Escherichia coli. The following applies: 23 °C, 10 μM ketoconazole trap, 1 μM P450 51A1. The method, then:
All assays were done at 23 °C in an OLIS-RSM 1000 stopped-flow spectrophotometer, collecting data every 1 ms over a range of 332 to 565 nm with slit widths of 1.24 mm (8 nm bandpass) and gratings with 400 lines/mm and 500 nm blaze. One syringe contained 20 μM ketoconazole dissolved in 100 mM potassium phosphate buffer (pH 7.4). In a preliminary experiment in which this was mixed with an equal volume of 2 μM P450 51A1 (same buffer), the observed rate of binding (ΔA430) was 25 s^−1.
P450 51A1 (2 μM) was premixed with an equivalent concentration of each of the sterols (in HPCD). Each of these solutions was placed in a drive syringe and rapidly mixed with 20 μM ketoconazole (yielding final concentrations of 1 μM P450 51A1 and 10 μM ketoconazole). The rate of the ΔA430-A390 change was used as the koff rate, that is, the rate at which the sterol left the P450 and allowed it to bind to the trap ligand ketoconazole.

“And” between values parts separate entries of the source, which are not always exact repeats. Equal values may be shown once. Read-outs that look alike come from different tables or passages of the source.

As to `CC(C)CCCC(C)[C@H]1CC[C@@]2(CO)C3=C(CC[C@]12C)[C@@]1(C)CC[C@H](O)C(C)(C)C1CC3` (stereo partly drawn) [14α-CH2OH dihydrolanosterol, 24,25-dihydro-14α-CH2OH lanosterol], the “kcat relative to dihydrolanosterol” value at human P450 51A1 [1] (oxidation to dihydro FF-MAS) is roughly 1.5 fold. The “kcat/Km relative to dihydrolanosterol” value on human P450 51A1 [1] (oxidation to dihydro FF-MAS) is recorded as roughly 1.5 fold. Moreover, the “Rate of FF-MAS formation (replicates)” value on human P450 51A1 [1] (substrate 0.25 µM) was 1.4 min-1 (2×) and 1.5 min-1; at human P450 51A1 [1] (substrate 0.50 µM) it was 3.1 min-1 and 3.0 min-1 (2×); on human P450 51A1 [1] (substrate 0.75 µM) it was 4.7 min⁻¹ and 4.5 min⁻¹ and 3.9 min⁻¹; at human P450 51A1 [1] (substrate 1.00 µM), 6.5 min-1 (2×) and 7.1 min-1; on human P450 51A1 [1] (substrate 1.50 µM), 8.9 min⁻¹ and 8.6 min⁻¹ and 11.1 min⁻¹; on human P450 51A1 [1] (substrate 2.50 µM), 16.2 min⁻¹ and 16.4 min⁻¹ and 16.5 min⁻¹. Moreover, the “Rate of FF-MAS formation (replicates)” value at human P450 51A1 [1] (substrate 5.00 µM) was 25.1 min⁻¹ and 20.7 min⁻¹ and 25.9 min⁻¹; at human P450 51A1 [1] (substrate 7.50 µM), 25.1 min⁻¹ and 26.3 min⁻¹ and 27.2 min⁻¹; at human P450 51A1 [1] (substrate 10.00 µM) it was 26.4 min⁻¹ and 27.4 min⁻¹ and 26.6 min⁻¹; at human P450 51A1 [1] (substrate 15.00 µM) it was 29.2 min⁻¹ and 33.0 min⁻¹ and 31.0 min⁻¹. The “k^+ of sterol binding to P450 51A1 (kon) used for fitting” value in the experiment on human P450 51A1 [2] (all kon set at this value) was found to be 2e+06 M⁻¹ s⁻¹. Further, the “k^- of oxidation step of the P450-sterol complex” value in the experiment on human P450 51A1 [2] (irreversible, set to zero) amounted to 0. Moreover, the “k^- of sterol binding to P450 51A1 (koff) used for fitting” value in the experiment with human P450 51A1 [2] (optimized model) is 0.040 s⁻¹. The “k^+ of oxidation step of the P450-sterol complex” value in the experiment on human P450 51A1 [2] (optimized model, label = sterol oxidized in the step) is 3.5 s⁻¹. Also, the Kd entry on human P450 51A1 [3] is “sub-μM”; at human P450 51A1 [3] (read-out: Kd), 20 ± 40 nM. At human P450 51A1 [4], this compound showed a koff of 0.022 ± 0.001 s⁻¹.
